Structures can show the parent of a compound that is named as a salt. Where two headings read alike, the source gives them in different places.
What was measured:
[1] = CNS penetration following a single intraperitoneal dose; assay type: in vivo, Male Long Evans Rats; details: for Kp: male, Long Evans, rat, brain and plasma, read-out: Brain/plasma ratio
[2] = Pharmacokinetics following a single oral dose; set-up: species or system Male Long Evans Rats; details: male, Long Evans, rat, in vivo; for bioavailability: po, 10 mg/kg, Table 1, obtained according to Example 10; for AUC(0-inf): single oral dose of 10 mg/kg
Experimental: (§1) Pharmacokinetics and CNS Penetration of Compounds were Determined Using HPLC Analysis of the Prepared Samples and Presented in Tables 2, 3, & 4 Below
(§2) Male Long Evans Rats were dosed with the candidate drug substance at the dosage amount and route listed above using standard pharmacokinetic procedures (Applied Biopharmaceutics & Pharmacokinetics, Shargel, L and Yu, A, 4th Ed 1999, McGraw-Hill, N.Y.; Welling, P G, Pharmacokinetics, Process and Mathematics, ACS Monograph 185, American Chemical Society 1986, Washington, D.C.; Lee, P and Amidon, G L, Pharmacokinetic Analysis-A Practical Approach, Technomic Pub Co Lancaster Pa. 1996)).

[3] = biological target: T1, serotonin 5HT6 receptor subtype (Homo sapiens, UniProt P50406); assay: 5HT6 Binding Affinity ([3H]-LSD SPA binding)
T1 construct: host or cells: CHO-Dukx-A2 cells, clone 50-7

[4] = Pharmacokinetics following a single IV bolus; set-up: species or system Male Long Evans Rats; details: male, Long Evans, rat, in vivo; single IV bolus at 2 mg/kg, n = 3
Experimental: as §1, §2

[5] = Microsomal stability, rat; assay type: in vitro ADME; details: Rat microsomes
Experimental: (§3) Compounds listed in Table 5, column A, are prepared as described in U.S. Pat. No. 7,238,696. Each of the compounds in Table 5, columns A and B, were screen according to the microsomal stability procedure described in Di et al., Journal of Biomolecular Screening 2003:453-462.

[6] = Microsomal stability, human; assay type: in vitro ADME; details: Human microsomes
Experimental: as §3

[7] = intraperitoneal, 10 mg/mL, Table 1, obtained according to Example 10
[8] = ip, Table 4, single intraperitoneal dose of 10 mg/kg, n = 3
[9] = CHO-Dukx-A2 cells expressing 5HT6, 3 nM [3H]-LSD, Cheng-Prusoff, read-out: 5HT6 Ki

T1 sequence (P50406 whole entry): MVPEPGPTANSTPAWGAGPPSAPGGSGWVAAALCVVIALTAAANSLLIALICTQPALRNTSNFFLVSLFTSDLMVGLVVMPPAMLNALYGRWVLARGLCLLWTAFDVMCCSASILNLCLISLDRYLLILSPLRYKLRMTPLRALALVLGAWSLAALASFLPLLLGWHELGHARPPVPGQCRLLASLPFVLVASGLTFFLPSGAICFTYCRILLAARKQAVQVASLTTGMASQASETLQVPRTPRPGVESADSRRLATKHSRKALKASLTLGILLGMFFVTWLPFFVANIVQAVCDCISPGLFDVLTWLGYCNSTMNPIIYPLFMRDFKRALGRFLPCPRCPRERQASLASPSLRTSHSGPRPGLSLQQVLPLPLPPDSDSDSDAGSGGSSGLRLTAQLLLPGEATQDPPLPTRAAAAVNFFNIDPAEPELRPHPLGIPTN

SMILES | Kp [1, 7] | Kp [1, 8] | AUClast ([1]; matrix brain, single intraperitoneal dose of 10 mg/kg, n = 3) | bioavailability [2] | AUC(0-inf) [2] | Ki [3] | AUC(0-inf) [4] | Microsomal Stability [5] | Microsomal Stability [6] | Ki [3, 9]
O=S(=O)(c1cccc2ccccc12)c1n[nH]c2ccc(N3CCNCC3)cc12 [Compound C, 3-(naphthalen-1-ylsulfonyl)-5-(piperazin-1-yl)-1H-indazole dihydrochloride, reference compound] | < 0.01 | < 0.01 | Not detectable | 3% | 119 ng·h/mL | 0.8 nM | 390 ng·h/mL |  |  | 
CC(C)Cn1nc(S(=O)(=O)c2cccc3ccccc23)c2cc(N3CCNCC3)ccc21 [Example 1, 1-Isobutyl-3-(naphthalen-1-ylsulfonyl)-5-(piperazin-1-yl)-1H-indazole dihydrochloride] | 0.81 | 0.81 |  | 22% | 413 ng·h/mL |  | 378 ng·h/mL | 24 min | >30 min | 4.6 nM
O=S(=O)(c1cccc2ccccc12)c1nn(Cc2ccccc2)c2ccc(N3CCNCC3)cc12 [Example 2, 1-Benzyl-3-(naphthalene-1-sulfonyl)-5-piperazin-1-yl-1H-indazole dihydrochloride] | 0.26 | 0.26 |  | 50% | 2100 ng·h/mL |  | 843 ng·h/mL | 25 min | 13 min | 7.5 nM
O=S(=O)(c1cccc2ccccc12)c1nn(Cc2cccc(Cl)c2)c2ccc(N3CCNCC3)cc12 [Example 3, 1-(3-Chlorobenzyl)-5-(piperazin-1-yl)-3-(naphthalen-1-ylsulfonyl)-1H-indazole dihydrochloride] |  |  |  |  |  |  |  |  |  | 23.5 nM
CC(=O)n1nc(S(=O)(=O)c2cccc3ccccc23)c2cc(N3CCNCC3)ccc21 [Example 4, 1-(3-(Naphthalen-1-ylsulfonyl)-5-(piperazin-1-yl)-1H-indazol-1-yl)ethanone hydrochloride] |  |  |  |  |  |  |  |  |  | 1 nM
Cn1nc(S(=O)(=O)c2cccc3ccccc23)c2cc(N3CCNCC3)ccc21 [Example 5, 1-Methyl-3-(naphthalen-1-ylsulfonyl)-5-(piperazin-1-yl)-1H-indazole dihydrochloride] | 0.3 |  |  |  |  |  |  |  |  | 1.6 nM
CCn1nc(S(=O)(=O)c2cccc3ccccc23)c2cc(N3CCNCC3)ccc21 [Example 6, 1-Ethyl-3-(naphthalen-1-ylsulfonyl)-5-(piperazin-1-yl)-1H-indazole dihydrochloride] | 0.45 |  |  |  |  |  |  |  |  | 1.9 nM
CCCn1nc(S(=O)(=O)c2cccc3ccccc23)c2cc(N3CCNCC3)ccc21 [Example 7, 3-(Naphthalen-1-ylsulfonyl)-5-(piperazin-1-yl)-1-propyl-1H-indazole dihydrochloride] |  |  |  |  |  |  |  |  |  | 2.2 nM
CC(C)n1nc(S(=O)(=O)c2cccc3ccccc23)c2cc(N3CCNCC3)ccc21 [Example 8, 1-Isopropyl-3-(naphthalen-1-ylsulfonyl)-5-(piperazin-1-yl)-1H-indazole dihydrochloride] | 0.36 |  |  |  |  |  |  | >30 min | >30 min | 3 nM
